For test [1], the target named is Beta Secretase enzyme (BACE) (Homo sapiens, UniProt P56817). The test can be described thus: In vitro enzymatic BACE FRET (fluorescence resonance energy transfer) assay. Type of test: biochemical. The method, boiled down: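 Fluorescence read after Tris quench to neutral pH. Reaction: 50 nM fluorophore/quencher peptide substrate, 1 h, in 0.05 M acetate pH 4.2, 10% DMSO final, 100 uM genapol.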

Test [2] concerns Aβ40 in conditioned medium of cells stably expressing Amyloid Precursor Protein (APP). The test can be described thus: In vitro BACE cell-based assay (Aβ40 in conditioned medium, sandwich ELISA). Conditions: Homo sapiens. The method, boiled down: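 The sandwich ELISA pairs pAb40 capture (3 h, 4 °C) with 6E10 detection (2 h, 4 °C) and a streptavidin-europium TRF read-out. Supernatants come from APP-expressing cells grown in 10% FBS DMEM.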
Background: An ELISA detects its analyte on a solid surface through an enzyme-linked reagent.

Test [3] concerns Abeta 40 in cerebrospinal fluid (CSF) and brain. The test can be described thus: In vivo inhibition of beta-secretase (Abeta 40 reduction in CSF and brain). Conditions: rat, after 4 hrs; for inhibition in vivo at 10 mg/kg: Abeta 40, 10 mg/kg (10 mpk); for inhibition in vivo at 3 mg/kg: Abeta 40, 3 mpk. An excerpt:
In Vivo Inhibition of Beta-Secretase
Several animal models, including mouse, rat, dog, and monkey, may be used to screen for inhibition of beta-secretase activity in vivo following administration of a test compound sample. Animals used in this invention can be wild type, transgenic, or gene knockout animals. […] A separate group of animals receive 2% hydroxypropyl methylcellulose, 1% Tween80 alone, containing no test compound, and serve as a vehicle-control group. At the end of the test period, animals are sacrificed and brain tissues, plasma or cerebrospinal fluid are collected. […] Homogenates are centrifuged at 355,000 g, 4° C. for 30 minutes. CSF or brain supernatants are then analyzed for the presence of A-beta peptide by specific sandwich ELISA assays based on ECL (Electrochemiluminescence) technology. For example, rat Abeta40 is measured using biotinylated-4G8 (Signet) as a capture antibody and Fab40 (an in-house antibody specific to the C-terminal of Abeta40) as a detection antibody.
Actual vehicles used: Oral: 2% HPMC, 1% Tween80, pH 2.2

[4] abbreviates: average IC50, enzyme assay, read-out: BACE 1 FRET assay.
Setting [5] is: HEK293, average IC50, read-out: HEK cell assay.
Where [6] appears, read: CSF, read-out: CSF A-beta reduction % at 10 mg/kg.
Where [7] appears, read: brain, read-out: Brain A-beta reduction % at 10 mg/kg.
The mark [8] stands for this setting: CSF, read-out: CSF A-beta reduction % at 3 mpk.
Where [9] appears, read: brain, read-out: Brain A-beta reduction % at 3 mpk.
Where [10] appears, read: HEK293, average IC50, HEK cells, read-out: HEK cell assay.

Like-named read-outs stand apart in the source and are kept apart here.

Chain of Beta Secretase enzyme (BACE) (P56817 46-501, species assumed): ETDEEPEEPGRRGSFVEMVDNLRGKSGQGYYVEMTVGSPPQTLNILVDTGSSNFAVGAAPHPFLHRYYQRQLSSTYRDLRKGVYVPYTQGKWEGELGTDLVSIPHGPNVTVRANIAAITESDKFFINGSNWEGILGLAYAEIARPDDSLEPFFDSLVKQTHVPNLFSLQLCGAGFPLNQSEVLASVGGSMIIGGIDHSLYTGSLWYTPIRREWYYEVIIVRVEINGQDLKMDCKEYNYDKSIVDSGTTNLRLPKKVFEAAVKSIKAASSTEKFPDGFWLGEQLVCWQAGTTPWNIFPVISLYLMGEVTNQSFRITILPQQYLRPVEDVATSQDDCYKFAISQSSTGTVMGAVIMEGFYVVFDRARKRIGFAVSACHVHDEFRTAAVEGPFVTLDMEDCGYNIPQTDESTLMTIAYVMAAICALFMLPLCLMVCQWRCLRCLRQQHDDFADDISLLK

For `CC(F)(F)COc1cc(F)c2c(c1)[C@]1(CSC(N)=N1)c1cc(-c3cccnc3F)ccc1O2` [Example 724, (4S)-2′-(2,2-difluoropropoxy)-4′-fluoro-7′-(2-fluoro-3-pyridinyl)spiro[1,3-thiazole-4,9′-xanthen]-2-amine], the IC50 in test [1] (setting [4]) worked out at 0.001 µM; in test [2] (setting [5]) it was 0.022 µM. Further, the inhibition in vivo at 10 mg/kg in test [3] (setting [6]) stood at 42%; in test [3] (setting [7]), 27%.
As for `CC(C)(F)COc1cc(F)c2c(c1)[C@]1(CSC(N)=N1)c1cc(-c3cccnc3F)ccc1O2` [Example 1067, (S)-4′-fluoro-2′-(2-fluoro-2-methylpropoxy)-7′-(2-fluoropyridin-3-yl)-5H-spiro[thiazole-4,9′-xanthen]-2-amine], the IC50 in test [1] (setting [4]) came out at 0.0003 µM; in test [2] (setting [5]) it was 0.015 µM. Further, the values for the inhibition in vivo at 10 mg/kg in test [3] (setting [6]) and in test [3] (setting [7]) were 69% and 55%, respectively.
As to `NC1=N[C@@]2(CS1)c1cc(-c3cccnc3F)ccc1Oc1c2cc(C2=CCOCC2)nc1F` [Example 1001, (S)-3-(3,6-dihydro-2H-pyran-4-yl)-1-fluoro-7-(2-fluoropyridin-3-yl)-5′H-spiro[chromeno[2,3-c]pyridine-5,4′-thiazol]-2′-amine], the IC50 in test [1] (setting [4]) turned out to be 0.0003 µM; in test [2] (setting [5]), 0.004 µM. In addition, the figures for the inhibition in vivo at 3 mg/kg in test [3] (setting [8]) and in test [3] (setting [9]) were 73% and 62%, respectively.
Turning to `NC1=N[C@@]2(CO1)c1cc(-c3cccnc3F)ccc1Oc1c(F)cc(N3CC4CCC(C3)O4)cc12` [Example 225, (4S)-2′-(8-oxa-3-azabicyclo[3.2.1]octan-3-yl)-4′-fluoro-7′-(2-fluoropyridin-3-yl)-5H-spiro[oxazole-4,9′-xanthen]-2-amine], the IC50 turned out to be 0.0003 µM in test [1] (setting [4]) and 0.0016 µM in test [2] (setting [5]). Also, the results for the inhibition in vivo at 10 mg/kg in test [3] (setting [6]) and in test [3] (setting [7]) were 64% and 47%, respectively.
With `Cc1cc(-c2cc3c(c(F)n2)Oc2ccc(-c4cccnc4F)cc2[C@@]32CSC(N)=N2)ccn1` [Example 1037, (S)-1-fluoro-7-(2-fluoropyridin-3-yl)-3-(2-methylpyridin-4-yl)-5′H-spiro[chromeno[2,3-c]pyridine-5,4′-thiazol]-2′-amine], the IC50 in test [1] (setting [4]) was 0.0021 µM; in test [2] (setting [5]), 0.049 µM. Besides, the inhibition in vivo at 10 mg/kg in test [3] (setting [6]) was 67%; in test [3] (setting [7]), 58%.
As for `N#Cc1cccc(-c2ccc3c(c2)[C@@]2(COC(N)=N2)c2cc(N4CCOCC4)nc(F)c2O3)c1` [Example 894, 3-((5S)-2′-amino-1-fluoro-3-(4-morpholinyl)spiro[chromeno[2,3-c]pyridine-5,4′-[1,3]oxazol]-7-yl)benzonitrile], the IC50 in test [1] (setting [4]) was determined as 0.0003 µM; in test [2] (setting [10]), 0.01 µM. The inhibition in vivo at 10 mg/kg in test [3] (setting [6]) worked out at 75%; in test [3] (setting [7]), 69%.
Take `N#Cc1cccc(-c2ccc3c(c2)[C@@]2(COC(N)=N2)c2cc(N4CCC(F)(F)C4)ncc2O3)c1` [Example 134, (S)-3-(2′-amino-3-(3,3-difluoropyrolidin-1-yl)-5′H-spiro[chromeno[2,3-c]pyridine-5,4′-oxazole]-7-yl)benzonitrile]: the IC50 turned out to be 0.001 µM in test [1] (setting [4]) and 0.012 µM in test [2] (setting [10]). The results for the inhibition in vivo at 10 mg/kg in test [3] (setting [6]) and in test [3] (setting [7]) were 61% and 45%, respectively.
On to `CC(C)(F)COc1cc(F)c2c(c1)[C@]1(COC(N)=N1)c1cc(-c3cncnc3)c(F)cc1O2` [Example 668, (4S)-3′,5′-difluoro-7′-(2-fluoro-2-methylpropoxy)-2′-(5-pyrimidinyl)spiro[1,3-oxazole-4,9′-xanthen]-2-amine], for which the IC50 in test [1] (setting [4]) came to 0.0008 µM; in test [2] (setting [10]), 0.011 µM. Further, the inhibition in vivo at 3 mg/kg came to 55% in test [3] (setting [8]) and 46% in test [3] (setting [9]).
In the case of `CC#Cc1cncc(-c2ccc3c(c2)[C@@]2(COC(N)=N2)c2cc(C4=CCOCC4)cnc2O3)c1` [Example 942, (S)-3-(3,6-dihydro-2H-pyran-4-yl)-7-(5-(prop-1-ynyl)pyridin-3-yl)-5′H-spiro[chromeno[2,3-b]pyridine-5,4′-oxazol]-2′-amine], the IC50 in test [1] (setting [4]) is 0.0004 µM; in test [2] (setting [10]) it was 0.001 µM. Moreover, the inhibition in vivo at 3 mg/kg in test [3] (setting [8]) worked out at 57%; in test [3] (setting [9]) it was 42%.
As for `Cn1cc(-c2cc(F)c3c(c2)[C@]2(COC(N)=N2)c2cc(-c4ccc(F)nc4)ccc2O3)cn1` [Example 262, (S)-4′-fluoro-7′-(6-fluoropyridin-3-yl)-2′-(1-methyl-1H-pyrazol-4-yl)-5H-spiro[oxazole-4,9′-xanthen]-2-amine], the IC50 in test [1] (setting [4]) is 0.0033 µM; in test [2] (setting [5]), 0.0126 µM. In addition, the figures for the inhibition in vivo at 10 mg/kg in test [3] (setting [6]) and in test [3] (setting [7]) were 36% and 11%, respectively.
As to `NC1=N[C@@]2(CO1)c1cc(-c3cnccn3)ccc1Oc1c(F)cc(C3=CCOCC3)cc12` [Example 452, (S)-2′-(3,6-dihydro-2H-pyran-4-yl)-4′-fluoro-7′-(pyrazin-2-yl)-5H-spiro[oxazole-4,9′-xanthen]-2-amine], the IC50 in test [1] (setting [4]) was 0.002 µM; in test [2] (setting [10]), 0.0115 µM. Further, the inhibition in vivo at 10 mg/kg is 56% in test [3] (setting [6]) and 35% in test [3] (setting [7]).
Turning to `NC1=N[C@@]2(CO1)c1cc(-c3c(F)ccnc3F)ccc1Oc1cnc(C3=CCCOC3)cc12` [Example 676, (5S)-7-(2,4-difluoro-3-pyridinyl)-3-(5,6-dihydro-2H-pyran-3-yl)spiro[chromeno[2,3-c]pyridine-5,4′-[1,3]oxazol]-2′-amine], the IC50 in test [1] (setting [4]) was 0.0006 µM; in test [2] (setting [10]), 0.006 µM. Also, the inhibition in vivo at 3 mg/kg in test [3] (setting [8]) was 76%; in test [3] (setting [9]), 74%.
For `NC1=N[C@@]2(CS1)c1cc(-c3cccnc3F)ccc1Oc1ncc(C3=CCOCC3)cc12` [Example 97, (S)-3-(3,6-dihydro-2H-pyran-4-yl)-7-(2-fluoropyridin-3-yl)-5′H-spiro[chromeno[2,3-b]pyridine-5,4′-thiazol]-2′-amine], the IC50 is 0.0005 µM in test [1] (setting [4]) and 0.0076 µM in test [2] (setting [10]). Besides, the results for the inhibition in vivo at 10 mg/kg in test [3] (setting [6]) and in test [3] (setting [7]) were 46% and 28%, respectively.
For `NC1=N[C@@]2(CS1)c1cc(-c3cccnc3F)ccc1Oc1c2cc(C2CCOCC2)nc1F` [Example 1029, (S)-1-fluoro-7-(2-fluoropyridin-3-yl)-3-(tetrahydro-2H-pyran-4-yl)-5′H-spiro[chromeno[2,3-c]pyridine-5,4′-thiazol]-2′-amine], the values for the IC50 in test [1] (setting [4]) and in test [2] (setting [5]) were 0.0004 µM and 0.007 µM, respectively. The inhibition in vivo at 10 mg/kg in test [3] (setting [6]) is 83%; in test [3] (setting [7]), 73%.
Turning to `Cc1ccc(-c2cc(F)c3c(c2)[C@]2(COC(N)=N2)c2cc(OCC(C)(C)C#N)ccc2O3)cn1` [Example 443, (S)-3-(2-amino-4′-fluoro-2′-(6-methylpyridin-3-yl)-5H-spiro[oxazole-4,9′-xanthene]-7′-yloxy)-2,2-dimethylpropanenitrile], the IC50 in test [1] (setting [4]) is 0.005 µM; in test [2] (setting [10]), 0.0116 µM. For the same molecule, the inhibition in vivo at 10 mg/kg in test [3] (setting [6]) was 35%; in test [3] (setting [7]), 7%.
Turning to `NC1=N[C@@]2(CO1)c1cc(-c3c(F)ccnc3F)ccc1Oc1cnc(C3=CCOCC3)cc12` [Example 89, (5S)-7-(2,4-difluoro-3-pyridinyl)-3-(3,6-dihydro-2H-pyran-4-yl)spiro[chromeno[2,3-c]pyridine-5,4′-[1,3]oxazol]-2′-amine], the IC50 was 0.0007 µM in test [1] (BACE 1 FRET assay (uM)) and 0.0047 µM in test [2] (HEK293, read-out: HEK cell assay (uM), average IC50, HEK cell assay). For the same molecule, the inhibition in vivo at 10 mg/kg in test [3] (setting [6]) was determined as 80%; in test [3] (setting [7]), 69%.
On to `Cc1ccnc(F)c1-c1ccc2c(c1)[C@@]1(COC(N)=N1)c1cc(C3=CCOCC3)ncc1O2` [Example 236, (S)-3-(3,6-dihydro-2H-pyran-4-yl)-7-(2-fluoro-4-methylpyridin-3-yl)-5′H-spiro[chromeno[2,3-c]pyridine-5,4′-oxazol]-2′-amine], for which the values for the IC50 in test [1] (setting [4]) and in test [2] (setting [5]) were 0.0009 µM and 0.006 µM, respectively. Also, the inhibition in vivo at 10 mg/kg was found to be 58% in test [3] (setting [6]) and 34% in test [3] (setting [7]).
With `CC1(C)C=C(c2cc3c(cn2)Oc2ccc(-c4ccc(F)nc4)cc2[C@@]32COC(N)=N2)CCO1` [Example 369, (S)-3-(6,6-dimethyl-3,6-dihydro-2H-pyran-4-yl)-7-(6-fluoropyridin-3-yl)-5′H-spiro[chromeno[2,3-c]pyridine-5,4′-oxazol]-2′-amine], the IC50 in test [1] (setting [4]) came out at 0.0028 µM; in test [2] (setting [5]), 0.0162 µM. The inhibition in vivo at 10 mg/kg came to 46% in test [3] (setting [6]) and 31% in test [3] (setting [7]).

Values taken from patent publication US8883782B2, “Spiro-tetracyclic ring compounds as beta-secretase modulators and methods of use” (Amgen Inc., priority 2010, dated 2014).
